{"source": "patent US11111375B2", "about": "“Compositions and methods for generating oligodendrocyte precursors” (The Regents of the University of California, priority 2015, dated 2021)", "key": {"H9 hESCs": {"system": "H9 hESCs", "test": "Preliminary comparison of SHH and SAG for early OPC differentiation (ICC)", "type": "cell-based, human", "conditions": "3D, 13 days", "procedure": "Following expansion, hPSCs were cultured in early OPC differentiation medium as described in FIG. 4A and fed daily with neural induction medium. Briefly, cells were first patterned with the dual-SMAD inhibitors LDN193189 and SB431542, and then ventralized using SHH or SAG. In some conditions, cells were caudalized using RA. On day 11 of the differentiation, cell-aggregates were split at a 1 to 3 ratio, broken into smaller-size aggregates by gentle pipetting (up and down, 10-15 times), re-encapsulated in the thermoresponsive gel, and fed with OPC proliferation medium. O1 ng/mL of FGF-2 (Peprotech) was then added to the OPC proliferation media described in FIG. 7A (added daily from day 14 until day 18, or from day 20 until day 24 of the differentiation). After FGF treatment, cells were fed every 2-3 days with OPC maturation medium, which included 20 μg/mL of L-Ascorbic Acid (Sigma) from day 75 until day 95. […]\nFor ICC analysis of cells differentiated in 3D, cell-spheres were transferred onto poly-D-lysine (10 μg/mL) and laminin (10 μg/mL)-coated glass-bottom plates, and incubated with their respective medium to enable cell spreading. […] Image Xpress Micro (IXM) was used for ICC quantification analysis, and Zeiss LSM 710 Axio Observer was used for confocal imaging. Images were analyzed using ImageJ and quantified using CellProfiler."}, "H9 cells": {"system": "H9 cells", "test": "ICC of OPC maturation markers (O4, SOX10, NKX2.2, OLIG2) in H9 cells", "type": "cell-based, human", "procedure": "Following expansion, hPSCs were cultured in early OPC differentiation medium as described in FIG. 4A and fed daily with neural induction medium. Briefly, cells were first patterned with the dual-SMAD inhibitors LDN193189 and SB431542, and then ventralized using SHH or SAG. In some conditions, cells were caudalized using RA. On day 11 of the differentiation, cell-aggregates were split at a 1 to 3 ratio, broken into smaller-size aggregates by gentle pipetting (up and down, 10-15 times), re-encapsulated in the thermoresponsive gel, and fed with OPC proliferation medium. O1 ng/mL of FGF-2 (Peprotech) was then added to the OPC proliferation media described in FIG. 7A (added daily from day 14 until day 18, or from day 20 until day 24 of the differentiation). After FGF treatment, cells were fed every 2-3 days with OPC maturation medium, which included 20 μg/mL of L-Ascorbic Acid (Sigma) from day 75 until day 95. See FIG. 20 for a detailed description of the differentiation conditions.\nFor ICC analysis of cells differentiated in 3D, cell-spheres were transferred onto poly-D-lysine (10 μg/mL) and laminin (10 μg/mL)-coated glass-bottom plates, and incubated with their respective medium to enable cell spreading. After 48 hr (for early OPC differentiation) or 5 days (for late stage OPC analysis), cells were fixed with 4% PFA for 15 min at RT. After one wash with PBS, cells were incubated overnight at 4° C. with primary antibody in freshly prepared staining primary solution (5% donkey serum, (DS), 2% bovine serum albumin (BSA) and 0.25% Triton X-100 in PBS). Then, cells were gently washed twice with PBS, and incubated for 2 hr at room temperature (RT) with secondary antibodies and 4′,6-diamidino-2-phenylindole (DAPI) (1:1000) in freshly prepared secondary staining solution (2% DS, 2% BSA and 0.25% Triton X-100 in PBS). Cells were then washed three times with PBS and imaged using a Zeiss Axio Observer epi-fluorescent microscope. Image Xpress Micro (IXM) was used for ICC quantification analysis, and Zeiss LSM 710 Axio Observer was used for confocal imaging. Images were analyzed using ImageJ and quantified using CellProfiler."}, "[1]": {"conditions": "early FGF treatment: FGF-2 daily day 14 to day 18"}}}
{"compound": "CNC1CCC(N(Cc2cccc(-c3ccncc3)c2)C(=O)c2sc3ccccc3c2Cl)CC1", "note": "(centres unmarked) [SAG]", "values": [{"measurement": "differences in NKX2.2 and OLIG2 expression, SHH vs SAG", "setting": "H9 hESCs", "value": "only minor differences"}]}
{"compound": "FGF-2: basic fibroblast growth factor-2 added to OPC proliferation medium", "values": [{"measurement": "fewer O4+ OPCs than with early FGF treatment", "setting": "H9 cells; FGF-2 from days 20-24, day 95", "value": "~4", "unit": "fold"}, {"measurement": "OPC differentiation on day 24 versus analogous condition without FGF", "setting": "H9 cells; [1]", "value": "similar"}, {"measurement": "number of cells expressing O4 by day 95", "setting": "H9 cells; [1]", "value": "increased"}]}
{"compound": "Vitamin D [reference compound]", "values": [{"measurement": "O4 expression among treated cells", "setting": "H9 cells; 0.1 μM from day 66 to day 95, H9 hESCs, condition 6 and early FGF", "value": "no increase"}]}
